# Experiments:
# [1] = target: GRXC1 (Arabidopsis thaliana, UniProt Q8L8T2); assay: GSH-disulfide transhydrogenase assay coupled to glutathione reductase, NADPH at […] nm; assay type: biochemical; conditions: 0.7 mM HED, 1 mM GSH, 0.2 mM NADPH, pH 8.0, 30°C
# [2] = target: GRXC2 (Arabidopsis thaliana, UniProt Q9FNE2); assay: as above; assay type: biochemical; conditions: 0.7 mM HED, 1 mM GSH, 0.2 mM NADPH, pH 8.0, 30°C
# Sequence of GRXC2 (Q9FNE2 whole entry): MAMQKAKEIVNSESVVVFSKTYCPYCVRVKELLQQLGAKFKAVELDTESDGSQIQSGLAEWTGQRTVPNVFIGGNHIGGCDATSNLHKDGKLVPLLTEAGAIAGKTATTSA
# Sequence of GRXC1 (Q8L8T2 whole entry): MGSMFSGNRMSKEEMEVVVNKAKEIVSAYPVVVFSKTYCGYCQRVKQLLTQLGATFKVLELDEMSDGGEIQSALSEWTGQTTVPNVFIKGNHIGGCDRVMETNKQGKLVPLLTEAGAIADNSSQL
structure (smiles),measurement,setting,value
OCCSSCCO [HED],"GSH-disulfide transhydrogenase assay coupled to glutathione reductase, NADPH at",[1],specific activities of recombinant GRXs were measured using the artificial substrate HED
same,"GSH-disulfide transhydrogenase assay coupled to glutathione reductase, NADPH at",[2],specific activities of recombinant GRXs were measured using the artificial substrate HED

# From article PMC5177656, “Cytosolic Triosephosphate Isomerase from Arabidopsis thaliana Is Reversibly Modified by Glutathione on Cysteines 127 and 218” (Frontiers in Plant Science, 2016)
